# In patent US20190352297A1, “SELECTIVE AURORA A KINASE INHIBITORS” (UNIVERSITAT BERN, priority 2017, published 2019):
# Positions count from the first letter of the chain named.
# Tests used:
# GFP-Aurora A-Arg137Ala = molecular target: T1, GFP-Aurora A-Arg137Ala (Homo sapiens, UniProt O14965, R137A); test: Phenotypic rescue, cells expressing mutant Aurora A; type: cell-based
# T1 construct: All Aurora A clones were constructed using full-length Aurora A as a template; expressed in transfected cells; host or cells: HeLa Kyoto
# T1 sequence (O14965 1-403 R137A): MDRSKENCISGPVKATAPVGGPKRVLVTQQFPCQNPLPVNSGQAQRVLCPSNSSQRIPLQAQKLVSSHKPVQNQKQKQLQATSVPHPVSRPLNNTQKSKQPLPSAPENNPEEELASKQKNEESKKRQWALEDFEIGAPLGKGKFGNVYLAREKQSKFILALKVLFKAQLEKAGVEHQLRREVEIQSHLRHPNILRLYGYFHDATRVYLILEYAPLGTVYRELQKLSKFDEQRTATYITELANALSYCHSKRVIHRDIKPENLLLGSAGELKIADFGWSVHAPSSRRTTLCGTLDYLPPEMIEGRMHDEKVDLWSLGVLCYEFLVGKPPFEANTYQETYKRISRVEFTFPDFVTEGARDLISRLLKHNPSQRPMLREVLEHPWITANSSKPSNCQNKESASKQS
# Procedure: (§1) HeLa Kyoto cells were cultured in high-glucose DMEM with GlutaMAX (Life Technologies) media supplemented with 10% fetal calf serum (FCS) in a humidified 5% CO2 incubator at 37° C. For plasmid transfections, cells were seeded at 80-90% confluence. 4 μg of plasmid DNA in 100 μl OptiMEM and 4 μl of Lipofectamine 2000 (Life Technologies) in 100 μl OptiMEM were incubated in parallel for 5 minutes, mixed for 20 minutes and added to each well. All Aurora A clones were constructed using full-length Aurora A as a template with appropriate PCR primer pairs. […] GFP-Aurora AR137A and GFP-Aurora AW277A were engineered using a site directed mutagenesis kit (Agilent Technologies, no. 210515) with appropriate primers. For determining the mitotic index and the chromosome misalignment phenotype, cells were incubated with various concentrations of compounds for 20 h before analysis. Cells were likewise treated with 0.25 μM MLN8237 (Selleckchem, no. S1133) or 5 μM ZM447439 (Selleckchem, no. S1103). For flow cytometry analysis, 50 nM MLN8037 and 2.5 μM ZM447439 were used. […] To assess the impact of compound 9 on cell cycle progression, DNA content was analyzed after propidium iodide staining using FACS (BD Accuri C6 flow cytometer).
# GFP-Aurora A-Trp277Ala = molecular target: T2, GFP-Aurora A-Trp277Ala (Homo sapiens, UniProt O14965, W277A); test: as above; type: cell-based
# T2 construct: All Aurora A clones were constructed using full-length Aurora A as a template; expressed in transfected cells; host or cells: HeLa Kyoto
# T2 sequence (O14965 1-403 W277A): T1 sequence (O14965 1-403 R137A) with A137R, W277A
# Procedure: as §1
# HeLa Kyoto cells = test: DNA content analysis by flow cytometry; type: cell-based, human; details: 48 h, 9 even at 10 μM
# Procedure: as §1
# Aurora A / TPX2 (1-43) = molecular target: T3, Aurora A / TPX2 (1-43) (Homo sapiens, UniProt O14965); test: Microscale thermophoresis, Aurora A binding to labeled TPX2 1-43; details: excess 9, three independent measurements
# T3 construct: human Aurora A kinase domain (residues 122-403 in the pET24-d vector); His-tag (cleaved yes); made in house; host or cells: E. coli BL21 (DE3) Rosetta (Aurora A); E. coli Bl21 (DE3) (TPX2)
# T3 sequence (O14965 122-403): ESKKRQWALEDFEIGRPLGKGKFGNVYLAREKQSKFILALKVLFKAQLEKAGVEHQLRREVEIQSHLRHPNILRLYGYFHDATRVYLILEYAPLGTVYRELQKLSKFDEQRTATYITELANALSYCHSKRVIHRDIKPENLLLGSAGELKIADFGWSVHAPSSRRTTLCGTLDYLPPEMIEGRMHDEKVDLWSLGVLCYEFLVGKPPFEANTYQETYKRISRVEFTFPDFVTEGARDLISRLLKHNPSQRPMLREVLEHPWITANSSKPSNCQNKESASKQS
# Procedure: TPX2 was labelled using the Monolith NT.115 protein labelling kit RED (NanoTemper Technologies). The labelling was performed according to the manufacturer's instructions in the supplied labelling buffer applying a concentration of 44 μM peptide at room temperature for 30 min. Labelled TPX2 was adjusted to 400 nM with final buffer and 0.05% Tween-20 (NanoTemper Technologies). Aurora A kinase with or without ligand was dissolved in final buffer supplemented with 0.05% Tween-20, and a series of 12 dilutions (1:1) was prepared in the identical buffer, keeping the DMSO/ligand concentration constant (final concentrations 0.5% and 125 μM, respectively). Final protein concentrations were between 4.4 nM and 150 μM. […] Thermophoresis was measured at room temperature with 5 s/30 s/5 s laser off/on/off times. […] Data of three independent measurements were analyzed (NT.Analysis software, version 1.5.41, NanoTemper Technologies) using the thermophoresis signal after 10 sec. Points measured above 4.7 μM Aurora A were rejected.
structure (smiles),measurement,setting,value
CCc1ccc(N=C2SC(=Cc3ccnc(Nc4ccc(C(=O)O)cn4)c3)C(=O)N2C)cc1 [Compound 9],sensitivity of GFP-Aurora A-Arg137Ala to inhibitor,GFP-Aurora A-Arg137Ala,insensitive
same,sensitivity of GFP-Aurora A-Trp277Ala to inhibitor,GFP-Aurora A-Trp277Ala,insensitive
same,accumulation of cells with 8N and 16N DNA contents,HeLa Kyoto cells,did not occur
same,binding of Aurora to labeled TPX2 1-43 in the presence of inhibitor,Aurora A / TPX2 (1-43),abolished
